Test results taken from patent publication US5358951A, “Angiotensin II receptor blocking 2, 3, 6 substituted quinazolinones” (American Cyanamid Company, priority 1993, dated 1994).

Tested on: vasopressor response of angiotensin II
Test: AII Challenge: antagonism of angiotensin II vasopressor response;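 for Response Average Change: post-dose Angiotensin II-evoked rise in systolic blood pressure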
Assay type: in vivo
Conditions: for inhibition in vivo at 3 mg/kg / inhibition in vivo at 10 mg/kg: Rattus norvegicus, iv
Description: Conscious Male Okamoto-Aoki SHR, 16-20 weeks old, weighing approximately 330 g are purchased from Charles River Labs (Wilmington, Mass.). Conscious rats are restrained in a supine position with elastic tape. The area at the base of the tail is locally anesthetized by subcutaneous infiltration with 2% procaine. The ventral caudal artery and vein are isolated, and a cannula made of polyethylene (PE) 10-20 tubing (fused together by heat) is passed into the lower abdominal aorta and vena cava, respectively. The cannula is secured, heparinized (1,000 I.U./ml), sealed and the wound is closed. The animals are placed in plastic restraining cages in an upright position. The cannula is attached to a Statham P23 Db pressure transducer, and pulsatile blood pressure is recorded to 10-15 minutes with a Gould Brush recorder. (Chan et al., (Drug Development Res., 18:75-94, 1989). Angiotensin II (human sequence, Sigma Chem. Co., St. Louis, Mo.) of 0.05 and 0.1 ug/kg i.v. is injected into all rats (predosing response). Then a test compound, vehicle or a known angiotensin II antagonist is administered i.v., i.p. or orally to each set of rats. The two doses of angiotensin II are given to each rat again at 30, 60, 90, 120, 180, 240 and 300 minutes post dosing the compound or vehicle. The vasopressor response of angiotensin II is measured for the increase in systolic blood pressure in mmHg. The percentage of antagonism or blockade of the vasopressor response of angiotensin II by a compound is calculated using the vasopressor response (increase in systolic blood pressure) of angiotensin II of each rat predosing the compound as 100%.

**Q.** What does the source list for `CCCCc1nc2ccc([C@@H]3C[C@H]4CCCCN4O3)cc2c(=O)n1Cc1ccc(-c2ccccc2-c2nnn[nH]2)cc1` (relative stereo) [Example 60, (Cis)-2-Butyl-6-(hexahydro-2H-isoxazolo[2,3-a]pyridin-2-yl)-3-[[2'-(1H-tetrazol-5-yl)-[1,1'-biphenyl]-4-yl]methyl]-4(3H)-quinazolinone]?
**A.** Response Average Change (3 mg/kg I.V., AII 0.05 mcg/kg IV, 240 min post dose): 15 mmHg; Response Average Change (3 mg/kg I.V., AII 0.05 mcg/kg IV, 300 min post dose): 15 mmHg; Response Average Change (3 mg/kg I.V., AII 0.1 mcg/kg IV, 240 min post dose): 18.5 mmHg; Response Average Change (3 mg/kg I.V., AII 0.1 mcg/kg IV, 300 min post dose): 30 mmHg; Response Average Change (10 mg/kg I.V., AII 0.05 mcg/kg IV, 30 min post dose): 0 mmHg; Response Average Change (10 mg/kg I.V., AII 0.05 mcg/kg IV, 60 min post dose): 7.5 mmHg; Response Average Change (10 mg/kg I.V., AII 0.05 mcg/kg IV, 90 min post dose): 14 mmHg; Response Average Change (10 mg/kg I.V., AII 0.05 mcg/kg IV, 120 min post dose): 9.5 mmHg; Response Average Change (10 mg/kg I.V., AII 0.05 mcg/kg IV, 180 min post dose): 12.5 mmHg; Response Average Change (10 mg/kg I.V., AII 0.05 mcg/kg IV, 240 min post dose): 17 mmHg; Response Average Change (10 mg/kg I.V., AII 0.05 mcg/kg IV, 300 min post dose): 12.5 mmHg; Response Average Change (10 mg/kg I.V., AII 0.1 mcg/kg IV, 30 min post dose): 0 mmHg; Response Average Change (10 mg/kg I.V., AII 0.1 mcg/kg IV, 60 min post dose): 7.5 mmHg; Response Average Change (10 mg/kg I.V., AII 0.1 mcg/kg IV, 90 min post dose): 15 mmHg; Response Average Change (10 mg/kg I.V., AII 0.1 mcg/kg IV, 120 min post dose): 12.5 mmHg; Response Average Change (10 mg/kg I.V., AII 0.1 mcg/kg IV, 180 min post dose): 21.5 mmHg; Response Average Change (10 mg/kg I.V., AII 0.1 mcg/kg IV, 240 min post dose): 12.5 mmHg; Response Average Change (10 mg/kg I.V., AII 0.1 mcg/kg IV, 300 min post dose): 22.5 mmHg; inhibition in vivo at 3 mg/kg (0.5 h, 3 mg/kg I.V., AII 0.05 mcg/kg IV, 30 min post dose): 80%; inhibition in vivo at 3 mg/kg (0.5 h, 3 mg/kg I.V., AII 0.1 mcg/kg IV, 30 min post dose): 69%; inhibition in vivo at 10 mg/kg (0.5 h, 10 mg/kg I.V., AII 0.05 mcg/kg IV, 30 min post dose): 100%; inhibition in vivo at 10 mg/kg (0.5 h, 10 mg/kg I.V., AII 0.1 mcg/kg IV, 30 min post dose): 100%; inhibition in vivo at 3 mg/kg (1 h, 3 mg/kg I.V., AII 0.05 mcg/kg IV, 60 min post dose): 73%; inhibition in vivo at 3 mg/kg (1 h, 3 mg/kg I.V., AII 0.1 mcg/kg IV, 60 min post dose): 79%; inhibition in vivo at 10 mg/kg (1 h, 10 mg/kg I.V., AII 0.05 mcg/kg IV, 60 min post dose): 82%; inhibition in vivo at 10 mg/kg (1 h, 10 mg/kg I.V., AII 0.1 mcg/kg IV, 60 min post dose): 85%; inhibition in vivo at 3 mg/kg (2 h, 3 mg/kg I.V., AII 0.05 mcg/kg IV, 120 min post dose): 73%; inhibition in vivo at 3 mg/kg (2 h, 3 mg/kg I.V., AII 0.1 mcg/kg IV, 120 min post dose): 56%; inhibition in vivo at 10 mg/kg (2 h, 10 mg/kg I.V., AII 0.05 mcg/kg IV, 120 min post dose): 77%; inhibition in vivo at 10 mg/kg (2 h, 10 mg/kg I.V., AII 0.1 mcg/kg IV, 120 min post dose): 74%; inhibition in vivo at 3 mg/kg (3 h, 3 mg/kg I.V., AII 0.1 mcg/kg IV, 180 min post dose): 44%; inhibition in vivo at 10 mg/kg (3 h, 10 mg/kg I.V., AII 0.05 mcg/kg IV, 180 min post dose): 70%; inhibition in vivo at 10 mg/kg (3 h, 10 mg/kg I.V., AII 0.1 mcg/kg IV, 180 min post dose): 56%; inhibition in vivo at 3 mg/kg (4 h, 3 mg/kg I.V., AII 0.05 mcg/kg IV, 240 min post dose): 59%; inhibition in vivo at 3 mg/kg (4 h, 3 mg/kg I.V., AII 0.1 mcg/kg IV, 240 min post dose): 49%; inhibition in vivo at 10 mg/kg (4 h, 10 mg/kg I.V., AII 0.05 mcg/kg IV, 240 min post dose): 59%; inhibition in vivo at 10 mg/kg (4 h, 10 mg/kg I.V., AII 0.1 mcg/kg IV, 240 min post dose): 74%; inhibition in vivo at 3 mg/kg (5 h, 3 mg/kg I.V., AII 0.05 mcg/kg IV, 300 min post dose): 59%; inhibition in vivo at 3 mg/kg (5 h, 3 mg/kg I.V., AII 0.1 mcg/kg IV, 300 min post dose): 18%; inhibition in vivo at 10 mg/kg (5 h, 10 mg/kg I.V., AII 0.05 mcg/kg IV, 300 min post dose): 70%; inhibition in vivo at 10 mg/kg (5 h, 10 mg/kg I.V., AII 0.1 mcg/kg IV, 300 min post dose): 54%; inhibition in vivo at 3 mg/kg ([…], 3 mg/kg I.V., AII 0.05 mcg/kg IV, 90 min post dose): 73%; inhibition in vivo at 10 mg/kg ([…], 10 mg/kg I.V., AII 0.05 mcg/kg IV, 90 min post dose): 66%; inhibition in vivo at 10 mg/kg ([…], 10 mg/kg I.V., AII 0.1 mcg/kg IV, 90 min post dose): 69%
